In patent US9101576B2, “Treatment of inflammatory diseases” (The University of Chicago, priority 2006, dated 2015):

How the values were obtained:
[1] = test system: medullary thymocytes; details: cited from earlier work
[2] = test system: B7-2 deficient NOD mice; assay: Electrophysiological studies of sciatic nerve function in vivo; design: species or system mouse; details: FTY720 1 mg/kg oral gavage once daily for 1 month
Protocol: (§1) Female B7-2 deficient NOD mice were used since they are more prone to develop SAP than their male counterparts (Salomon et al., supra). The mice were 7 months of age at the start of the study. Animals were given FTY720 (aqueous solution) at doses of 0.3 mg/kg or 1 mg/kg or vehicle alone by oral gavage once daily for 1 month. The concentrations were chosen based on dose-response studies with regard to the depletion of peripheral lymphocytes, and data from EAE studies in rats (Brinkmann et al., 2002; Fujino et al., 2003).
Electrophysiological studies were performed to assess the effect of FTY720 on sciatic nerve function in vivo in a subset of the study animals. […] FIG. 6 likewise illustrates that FTY720 treatment improves DL and CV (FIG. 6B, showing a summary of the results from experiments performed on 12 nerves from 6 water-treated mice and 14 nerves from 7 FTY720-treated mice) but not the amplitude of sciatic CMAPs (FIG. 6A).

[3] = test system: B7-2 deficient NOD mice; assay: Clinical scores and grip strength in spontaneous autoimmune polyneuropathy (SAP); assay type: in vivo, mouse
Protocol: as §1
To determine the effect of FTY720 on clinical scores and grip strength of B7-2 deficient NOD mice, both qualitative and quantitative assessment was performed by blinded lab personnel. For qualitative assessment, a nominal scale (with 0 as normal and 5 as death) described by other investigators (Zhu et al., 2001a) was used. For quantitative assessment, hindlimb and forelimb strength was measured with a grip strength meter (Columbus Instruments). […] Similar results were observed when forelimb and hindlimb strength was assessed quantitatively.

[4] = test system: peripheral blood lymphocyte; assay: Induction of peripheral blood lymphopenia; assay type: in vivo, mouse
Protocol: as §1
The effectiveness of FTY720 was also monitored by the induction of peripheral blood lymphopenia. The peripheral blood lymphocyte count was decreased to 50-60% of vehicle-treated ones by FTY720 (0.3 mg/kg) (n=4) and to 25-30% by FTY720 (1 mg/kg) (n=3).

[5] = test system: B7-2 deficient NOD mice; assay: Histological evaluation of inflammatory cell infiltration in sciatic nerve sections; assay type: in vivo, mouse; details: 1.0 mg/kg; quantitative (p<0.02) and semi-quantitative (p<0.003) method; n=7
Protocol: as §1
To further evaluate the effect of FTY720 on B7-2 deficient NOD mice, histological evaluation was performed to assess inflammatory cell infiltration. […] For quantitative method, tissue areas were measured by image analysis and the number of inflammatory cells counted at ×20 magnification. The results were averaged and expressed as cells per mm^2 tissue section. For semi-quantitative method, inflammation was graded as: 1, a few scattered mononuclear inflammatory cells often subperineurial; 2, perivenular cuffing with mononuclear inflammatory cells (one or two foci); 3, extensive multifocal perivenular cuffing and widespread endoneurial inflammation.

[6] = test system: B7-2 deficient NOD mice; assay: Demyelination and loss of myelinated fibers in epon sections; assay type: in vivo, mouse; details: 1.0 mg/kg, p<0.015, n=7
Protocol: as §1
Epon sections were prepared from vehicle-treated mice (n=6) and mice treated with 1.0 mg/kg FTY720 (n=7). […] These differences were statistically different with a p value of less than 0.015. The percentage of loss of myelinated fibers in epon sections was assessed by a blinded observer using a grid. Demyelination was graded as follows: 1, isolated demyelinated axons perivascular or scattered; 2, many foci of perivascular demyelination; 3, extensive demyelination, perivascular and confluent.

[7] = test system: lymphocyte; details: cited from earlier work
[8] = test system: T cell; details: cited from earlier work
[9] = test system: S1P receptors; details: transfected cells expressing individual S1P receptors; cited from earlier work
[10] = test system: neonatal DRG-SC co-cultures; assay: Myelination in neonatal DRG-SC co-cultures; assay type: cell-based
Excerpt: TNF-α and IFN-γ (labeled as cytokines) acted synergistically to decrease cell viability via NOS induction and ceramide accumulation in immortalized SCs (FIG. 4) (Nagano et al., 2001). Neither cytokine alone induced cell death. These cytokines also exerted a synergistic inhibitory action on myelination in neonatal DRG-SC co-cultures, which is evident after 3 days of treatment.

Molecule: CCCCCCCOc1ccc(CC[C@@](C)(N)CO)cc1 [AAL(R)]
- time to downregulation of CD69 [1]: ≤ 2 h

Molecule: CCCCCCCCc1ccc(CCC(N)(CO)CO)cc1 [FTY720, 2-amino-2-[2-(4-octylphenyl)ethyl]-1,3-propanediol]
- Distal Latency ([2]; sciatic nerve, vehicle 2.59 ± 0.3, p < 0.02): 1.58 ± 0.3 ms
- Conduction Velocity ([2]; sciatic nerve, vehicle 14.7 ± 3.0, p < 0.01): 22.8 ± 3.2 m/s
- Amplitude of sciatic CMAPs ([2]; vehicle 3.75 ± 1.8): 3.8 ± 0.7 mV
- difference in clinical score between 7 months and 8 months ([3]; 0.3 mg/kg oral once daily for 1 month, p less than 0.03, n=5): statistically significant
- forelimb and hindlimb grip strength vs vehicle or 0.3 mg/kg ([3]; 1.0 mg/kg oral once daily for 1 month, grip strength meter): increased grip strength
- clinical scores, month 7 vs month 8 ([3]; 1.0 mg/kg oral once daily for 1 month, scale 0 normal to 5 death, n=10): did not increase between month 7 and month 8
- peripheral blood lymphocyte count, % of vehicle-treated ([4]; 0.3 mg/kg oral once daily, n=4): 50-60%
- peripheral blood lymphocyte count, % of vehicle-treated ([4]; 1 mg/kg oral once daily, n=3): 25-30%
- inflammatory cell infiltration vs water-treated mice [5]: decreased inflammatory cell infiltration
- percentage of myelinated fibers lost vs vehicle [6]: decrease in the percentage of myelinated fibers lost
- concentration that elicits lymphocyte apoptosis [7]: > 3 µM
- T cell chemotactic activity [8]: lacks T cell chemotactic activity

Molecule: CCCCCCCCc1ccc(CC[C@](N)(CO)COP(=O)(O)O)cc1 [FTY720-P]
- agonist activity at S1P receptors [9]: potent agonist of S1P receptors with the exception of S1P2

Molecule: CCCCCCCCCCCCC/C=C/[C@@H](O)[C@@H](N)COP(=O)(O)O [S1P, sphingosine 1-phosphate]
- concentration that elicits T cell chemotaxis ([8]; high concentrations are inhibitory): ≤ 0.1 µM

Molecule: IFN-γ: pro-inflammatory Th1 cytokine
- effect on myelination ([10]; IFN-γ at 50-300 U/ml alone): No effect on myelination

Molecule: TNF-α
- effect on myelination ([10]; TNF-α 10 ng/ml alone): No effect on myelination
- effect on myelination ([10]; TNF-α 100 ng/ml alone): modest inhibitory action
